# Data as given in US20250145585A1, “HETEROCYCLIC INHIBITORS OF IGF-1R FOR TREATMENT OF DISEASE” (HORIZON THERAPEUTICS IRELAND DAC, priority 2023, published 2025).
# Target: T1, IGF-1R (Homo sapiens, UniProt P08069)
# T1 construct: expressed in transfected cells
# Test: Example B-2: IGF-1R Assay (PathHunter cell lines, EC80 agonist challenge, chemiluminescent detection)
# Assay type: cell-based
# Conditions: PathHunter cells, compound 60 minutes at 37° C., EC80 agonist 3 hours; read-out: IC50, Biological Activity against IGF-1R (Table B2)
# In short: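 PathHunter cells were pre-incubated with compound for 60 min at 37° C (1% vehicle), then challenged with EC80 agonist for 3 h at room temperature. Chemiluminescent detection after 1 h gave % inhibition relative to EC80 and vehicle controls, from which IC50 was derived.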
# T1 sequence (P08069 31-1367): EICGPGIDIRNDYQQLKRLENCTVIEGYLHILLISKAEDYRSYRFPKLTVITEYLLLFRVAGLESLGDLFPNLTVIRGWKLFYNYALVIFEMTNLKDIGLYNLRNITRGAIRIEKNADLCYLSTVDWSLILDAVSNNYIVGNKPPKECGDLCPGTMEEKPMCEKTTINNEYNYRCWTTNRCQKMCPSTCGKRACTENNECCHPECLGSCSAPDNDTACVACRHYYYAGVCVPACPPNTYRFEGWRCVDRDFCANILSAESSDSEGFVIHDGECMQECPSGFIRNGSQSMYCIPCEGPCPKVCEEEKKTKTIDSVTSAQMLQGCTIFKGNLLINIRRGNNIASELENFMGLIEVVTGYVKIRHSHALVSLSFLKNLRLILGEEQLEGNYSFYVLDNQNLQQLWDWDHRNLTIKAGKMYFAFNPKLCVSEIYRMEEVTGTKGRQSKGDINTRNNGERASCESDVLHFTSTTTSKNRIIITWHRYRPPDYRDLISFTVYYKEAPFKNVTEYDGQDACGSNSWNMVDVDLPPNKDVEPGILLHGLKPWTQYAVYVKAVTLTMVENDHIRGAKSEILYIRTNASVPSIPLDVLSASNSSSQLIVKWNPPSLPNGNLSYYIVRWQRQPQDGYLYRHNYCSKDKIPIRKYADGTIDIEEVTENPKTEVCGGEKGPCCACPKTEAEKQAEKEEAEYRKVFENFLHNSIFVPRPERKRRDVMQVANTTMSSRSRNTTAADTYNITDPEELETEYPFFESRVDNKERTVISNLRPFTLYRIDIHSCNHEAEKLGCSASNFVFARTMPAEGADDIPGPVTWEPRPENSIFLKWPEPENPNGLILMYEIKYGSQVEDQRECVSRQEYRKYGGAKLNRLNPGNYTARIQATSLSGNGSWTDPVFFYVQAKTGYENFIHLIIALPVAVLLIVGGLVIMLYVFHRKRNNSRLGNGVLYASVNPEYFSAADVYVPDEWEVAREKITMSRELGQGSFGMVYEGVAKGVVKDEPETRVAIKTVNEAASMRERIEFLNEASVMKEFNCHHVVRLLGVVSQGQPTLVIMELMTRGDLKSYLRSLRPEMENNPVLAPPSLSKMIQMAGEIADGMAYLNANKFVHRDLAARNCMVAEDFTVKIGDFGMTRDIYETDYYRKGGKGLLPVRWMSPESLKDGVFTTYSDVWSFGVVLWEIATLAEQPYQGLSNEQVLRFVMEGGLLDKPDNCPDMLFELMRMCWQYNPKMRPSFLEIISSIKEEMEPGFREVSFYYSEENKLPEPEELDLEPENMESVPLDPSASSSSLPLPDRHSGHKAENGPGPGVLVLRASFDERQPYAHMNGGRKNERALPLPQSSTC
row,IC50 [nM],Compound
1,≤ 500,"CC(Nc1cc(CN2C(=O)N(c3ccc(C4(C(F)(F)F)CC4)cc3)C(=O)C2(C)C)ccn1)c1cccnc1 (centres unmarked) [Compound 165, 5,5-dimethyl-1-((2-((1-(pyridin-3-yl)ethyl)amino)pyridin-4-yl)methyl)-3-(4-(1-(trifluoromethyl)cyclopropyl)phenyl)imidazolidine-2,4-dione]"
2,≤ 500,"CC1(C)C(=O)N(c2ccc3c(c2)OCC32CCC2)C(=O)N1Cc1ccnc2c1CC(=O)N2 [Compound 51, 5,5-dimethyl-1-((2-oxo-2,3-dihydro-1H-pyrrolo[2,3-b]pyridin-4-yl)methyl)-3-(2H-spiro[benzofuran-3,1′-cyclobutan]-6-yl)imidazolidine-2,4-dione]"
3,≤ 500,"COC(C)CNc1cc(CN2C(=O)N(c3ccc(C4(C(F)(F)F)CC4)cc3)C(=O)C2(C)C)ccn1 (centres unmarked) [Compound 163, 1-((2-((2-methoxypropyl)amino)pyridin-4-yl)methyl)-5,5-dimethyl-3-(4-(1-(trifluoromethyl)cyclopropyl)phenyl) imidazolidine-2,4-dione]"
4,500 to 2000,"C[C@H](Nc1cc(CN2C(=O)N(c3ccc(S(=O)(=O)C(F)(F)F)cc3)C(=O)C2(C)C)ccn1)[C@@H]1CCCO1 [Compound 339, 5,5-dimethyl-1-((2-(((S)-1-((S)-tetrahydrofuran-2-yl)ethyl)amino)pyridin-4-yl)methyl)-3-(4-((trifluoromethyl)sulfonyl)phenyl) imidazolidine-2,4-dione]"
5,> 10000,"CC1(C)C(=O)N(c2ccc(OC(F)(F)F)c(NS(C)(=O)=O)c2)C(=O)N1Cc1ccnc2c1CC(=O)N2 [Compound 283, N-(5-(4,4-dimethyl-2,5-dioxo-3-((2-oxo-2,3-dihydro-1H-pyrrolo[2,3-b]pyridin-4-yl)methyl)imidazolidin-1-yl)-2-(trifluoromethoxy)phenyl) methanesulfonamide]"
6,≤ 500,"CN(C)CC(=O)Nc1cc(N2C(=O)N(Cc3ccnc4c3CC(=O)N4)C(C)(C)C2=O)ccc1OC(F)(F)F [Compound 54, N-(5-(4,4-dimethyl-2,5-dioxo-3-((2-oxo-2,3-dihydro-1H-pyrrolo[2,3-b]pyridin-4-yl)methyl)imidazolidin-1-yl)-2-(trifluoromethoxy)phenyl)-2-(dimethylamino)acetamide]"
7,≤ 500,"CC1(C)C(=O)N(c2ccc(C3(C(F)(F)F)CC3)cc2)C(=O)N1Cc1ccnc2c1OCC1(CC1)N2 [Compound 58, 1-((2′H,4′H-spiro[cyclopropane-1,3′-pyrido[3,2-b][1,4]oxazin]-8′-yl)methyl)-5,5-dimethyl-3-(4-(1-(trifluoromethyl)cyclopropyl)phenyl) imidazolidine-2,4-dione]"
8,> 10000,"Cn1nc(C(C)(C)C)cc1N1C(=O)N(Cc2ccnc3[nH]ccc23)C(C)(C)C1=O [Compound 42, 1-((1H-pyrrolo[2,3-b]pyridin-4-yl)methyl)-3-(3-(tert-butyl)-1-methyl-1H-pyrazol-5-yl)-5,5-dimethylimidazolidine-2,4-dione]"
9,2000 to 10000,"Cn1nc(C(C)(C)C)cc1N1C(=O)N(Cc2ccnc(NC3CCOCC3)c2)C(C)(C)C1=O [Compound 260, 3-(3-(tert-butyl)-1-methyl-1H-pyrazol-5-yl)-5,5-dimethyl-1-((2-((tetrahydro-2H-pyran-4-yl)amino)pyridin-4-yl)methyl)imidazolidine-2,4-dione]"
10,≤ 500,"CC1(C)C(=O)N(c2ccc3c(c2)N(S(C)(=O)=O)CC32CC2(C)C)C(=O)N1Cc1ccnc(N[C@H]2[C@@H]3COC[C@@H]32)c1 (stereo partly drawn) [Compound 164, 1-((2-(((1R,5S,6r)-3-oxabicyclo[3.1.0]hexan-6-yl)amino)pyridin-4-yl)methyl)-3-(2,2-dimethyl-1′-(methylsulfonyl)spiro[cyclopropane-1,3′-indolin]-6′-yl)-5,5-dimethylimidazolidine-2,4-dione]"
11,≤ 500,"CC1(C)C(=O)N(c2ccc(C3(C(F)(F)F)CC3)cc2)C(=O)N1Cc1ccnc2c1OC[C@@H](CC#N)N2 [Compound 56, (R)-2-(8-((5,5-dimethyl-2,4-dioxo-3-(4-(1-(trifluoromethyl)cyclopropyl)phenyl)imidazolidin-1-yl)methyl)-3,4-dihydro-2H-pyrido[3,2-b][1,4]oxazin-3-yl) acetonitrile]"
12,≤ 500,"COC[C@@H](C)Nc1cc(CN2C(=O)N(c3ccc4c(c3)OCC4(C)C)C(=O)C2(C)C)ccn1 [Compound 198, (R)-3-(3,3-dimethyl-2,3-dihydrobenzofuran-6-yl)-1-((2-((1-methoxypropan-2-yl)amino)pyridin-4-yl)methyl)-5,5-dimethylimidazolidine-2,4-dione]"
13,≤ 500,"COCCC(C)Nc1cc(CN2C(=O)N(c3ccc4c(c3)N(S(C)(=O)=O)CC4(C)C)C(=O)C2(C)C)ccn1 (centres unmarked) [Compound 219, 3-(3,3-dimethyl-1-(methylsulfonyl)indolin-6-yl)-1-((2-((4-methoxybutan-2-yl)amino)pyridin-4-yl)methyl)-5,5-dimethylimidazolidine-2,4-dione]"
14,≤ 500,"CC1(C)C(=O)N(c2ccc(C34CC(C3)C4)cc2)C(=O)N1Cc1ccnc2c1CC(=O)N2 [Compound 32, 3-(4-(bicyclo[1.1.1]pentan-1-yl)phenyl)-5,5-dimethyl-1-((2-oxo-2,3-dihydro-1H-pyrrolo[2,3-b]pyridin-4-yl)methyl)imidazolidine-2,4-dione]"
15,> 10000,"CC1(C)C(=O)N(c2ccc3c(c2)CCS3(=O)=O)C(=O)N1Cc1ccnc(N[C@H]2[C@@H]3COC[C@@H]32)c1 [Compound 250, 1-((2-(((1R,5S,6r)-3-oxabicyclo[3.1.0]hexan-6-yl)amino)pyridin-4-yl)methyl)-3-(1,1-dioxido-2,3-dihydrobenzo[b]thiophen-5-yl)-5,5-dimethylimidazolidine-2,4-dione]"
16,≤ 500,[2H]C([2H])([2H])Nc1cc(CN2C(=O)N(c3ccc(S(=O)(=O)C(F)(F)F)cc3)C(=O)C2(C)C)ccn1 [Compound 408]
17,≤ 500,"CC1(C)C(=O)N(c2ccc(C3(C(F)(F)F)CC3)cc2)C(=O)N1Cc1ccnc(NCc2nnc[nH]2)c1 [Compound 174, 1-((2-(((4H-1,2,4-triazol-3-yl)methyl)amino)pyridin-4-yl)methyl)-5,5-dimethyl-3-(4-(1-(trifluoromethyl)cyclopropyl)phenyl) imidazolidine-2,4-dione]"
18,≤ 500,"CC1(C)CN(C(N)=O)c2cc(N3C(=O)N(Cc4ccnc(N[C@H]5[C@@H]6COC[C@@H]65)c4)C(C)(C)C3=O)ccc21 [Compound 253, 6-(3-((2-(((1R,5S,6r)-3-oxabicyclo[3.1.0]hexan-6-yl)amino)pyridin-4-yl)methyl)-4,4-dimethyl-2,5-dioxoimidazolidin-1-yl)-3,3-dimethylindoline-1-carboxamide]"
19,≤ 500,"CO[C@@H](C)CNc1cc(CN2C(=O)N(c3ccc4c(c3)N(S(C)(=O)=O)CC43CCC3)C(=O)C2(C)C)ccn1 [Compound 238, (S)-1-((2-((2-methoxypropyl)amino)pyridin-4-yl)methyl)-5,5-dimethyl-3-(1′-(methylsulfonyl)spiro[cyclobutane-1,3′-indolin]-6′-yl)imidazolidine-2,4-dione]"
20,≤ 500,"CC1(C)CN(C(=O)C2CC2)c2cc(N3C(=O)N(Cc4ccnc5c4CC(=O)N5)C(C)(C)C3=O)ccc21 [Compound 39, 3-(1-(cyclopropanecarbonyl)-3,3-dimethylindolin-6-yl)-5,5-dimethyl-1-((2-oxo-2,3-dihydro-1H-pyrrolo[2,3-b]pyridin-4-yl)methyl)imidazolidine-2,4-dione]"
